Reference: patent US20070270392A1, “Use of a Cyclopentenone Prostaglandin for Delaying the Onset and/or Preventing the Continuation of Labour” (Imperial College Innovations Limited, priority 2003, published 2007)
Residues, ends and D or L forms follow the SMILES beside them. *: point of attachment. Cbz = O=C(OCc1ccccc1)*

Assays:
NF-κB [1] = test: EMSA of NF-κB DNA binding in nuclear extracts of treated amnion cells; type: cell-based, human
Method: (§1) Electro-mobility shift assay (EMSA) analysis of NF-κB DNA binding in nuclear protein extracts from (A) myometrial cells, (B) L+amnion cells, and (C) L− amnion cells treated with 15dPGJ2 or vehicle for 2 h+/−IL-1b stimulation (15 min). Consensus kB probe used to assess NF-κB DNA binding, and consensus Oct-1 probe used as control.
EMSA analysis of nuclear protein extracts from amnion cells treated with 15dPGJ2+/−GW9662 or vehicle for 2 h followed by IL-1β stimulation (15 min). Consensus kB probe used to assess NFκB DNA binding, consensus Oct-1 probe used as control.
(§2) EMSA analysis of nuclear protein extracts from (A) myometrial cells, and (B) amnion cells treated with PGA1 or vehicle for 2 h followed by IL-1b stimulation (15 min). Consensus κB probe used to assess NFκB DNA binding, consensus Oct-1 probe used as control. For supershift analysis, extracts were preincubated with antibodies against p50 or p65.
(§3) EMSA analysis of nuclear protein extracts from (A) L− amnion cells and (B) myometrial cells treated with vehicle, PGE2 or IL-1β. Consensus κB probe used.
(§4) Placentae were obtained from patients at term either at elective Caesarean section prior to labour (L−) or following spontaneous labour onset and vaginal delivery (L+). Amnion cells were prepared as described in Bennett et al., (1989). Briefly, the amnion was separated from the placenta, washed 3× in PBS, cut into strips, and incubated in 0.51 mM EDTA in PBS for 15 min. The strips were washed in PBS 2× and digested with 2.5 mg/ml dispase in serum-free DMEM for 35 min at 37° C. The amnion was then shaken vigorously in DMEM, 10% FCS to dissociate the cells, the remaining strips discarded, and the cell suspension pelleted at 175 g for 10 min and cultured in DMEM, 10% FCS (Sigma), 1% L-glutamine, 1% penicillin-streptomycin.
(§5) Nuclear and cytosolic protein extracts were obtained from cultured amnion cells as described by Schreiber et al (1989). For nuclear/cytosolic fractionation, confluent cell monolayers were scraped and lysed using a buffer containing 10 mM HEPES, 10 mM KCl, 0.1 mM EDTA, 0.1 mM EGTA, 2 mM DTT, 1% (v/v) NP-40 and complete protease inhibitor tablets (CPIs, Roche), diluted to manufacturer's instructions. Cell lysates were incubated on ice for 10 min and NP-40 added to a final concentration of 1% (v/v). Lysates were vortexed for 10 secs and centrifuged for 30 secs at 4° C., 12000 g. The supernatants were retained as the cytosolic protein extracts. The pellets were resuspended in buffer containing 10 mM HEPES, 10 mM KCl, 0.1 mM EDTA, 0.1 mM EGTA, 2 mM DTT, 400 mM NaCl, 1% NP-40 (v/v) and CPIs. Samples were shaken vigorously for 15 min in an ice bath. The nuclear protein extracts were obtained in the supernatant following a 5 min centrifugation at 4° C., 12000 g.
(§6) Sense and antisense strands (175 nmole/ml each) were incubated in annealing buffer (10 mM Tris-HCl pH7.5, 100 mM NaCl, 1 mM EDTA) for 10 min at 65° C., and allowed to cool at room temperature for 2 h. 3.5 pmole double-stranded oligonucleotides were end-labelled with 0.37 MBq ^32P(γATP) by incubating for 30 min at 37° C. with T4 polynucleotide kinase. Labelled oligonucleotides were recovered by centrifugation at […] for 2 min through MicroSpin G-25 or G-50 sephadex columns (Amersham Biosciences). […]

NF-κB [2] = test: EMSA of NF-κB DNA binding in nuclear extracts of treated myometrial cells; type: cell-based, human; settings: myometrial cells; for IL-1β-induced NF-κB DNA binding: IL-1β stimulation 15 min
Method: as §1
Consensus κB probe used to assess NF-κB DNA binding, consensus Oct-1 probe used as control. For supershift analysis, extracts were preincubated with antibodies against p50 or p65.
EMSA analysis of nuclear protein extracts from myometrial cells treated with (A) WY-14643 or vehicle, and (B) high doses of troglitazone, WY-14643 or vehicle for 2 h followed by IL-1b stimulation (15 min). Consensus κB probe used to assess NFκB DNA binding, consensus Oct-1 and Sp-1 probes used as controls.
as §2
(§7) Analysis of nuclear protein extracts from myometrial cells treated with PGE2 or vehicle for 2 h+/−TNFα or IL-1b stimulation (15 min). (A) EMSA using consensus κB probe. (B) Western immunoblot probing for nuclear p65.
as §3
(§8) Myometrial tissue was collected at term from the upper margin of uterine incision at the time of lower segment caesarean section either prior to the onset of labour (L−) or […] (L+). L+ samples were collected by Dr Mark Johnson and Dr S Soorrana at Chelsea & Westminster Hospital. Myometrial tissue was dissected, rinsed in PBS, and digested in serum-free DMEM containing 15 mg/ml collagenase 1A (Sigma), 15 mg/ml collagenase X, and 50 mg/ml bovine serum albumin for 45 min at 37° C. The cell suspension was filtered through a cell strainer, centrifuged at 400 g for 5 min, and the pellet re-suspended and plated out in DMEM, 10% FCS (Helena BioScience), 1% L-glutamine, 1% penicillin-streptomycin. Cells were used between passage numbers 1-4.
as §5, §6

NF-κB [3] = test: NF-κB-dependent luciferase reporter (κB.BG.Luc) in myometrial cells; type: cell-based, human; settings: treated 2 h, IL-1β 1 ng/ml 6 h
Method: Myometrial cells were transiently transfected with the NFκB-dependent reporter construct κB.BG.Luc, treated with 15dPGJ2 or vehicle for 2 h, +/−IL-1β(1 ng/ml) for 6 h. […] Values are normalised for b-gal reporter activity. (NS=nonstimulated).
Myometrial cells were transfected with […] κB.BG.Luc reporter and 200 ng PPAR-γ expression vector and treated with 15d-PGJ2 for 2 h followed by IL-1β (1 ng/ml) for 6 h. Values are normalised for β-galactosidase reporter activity. (NS=nonstimulated).
as §8
pGL3.6 κB.BG.luc: a NF-κB-dependent reporter construct with 6 copies of the NF-κB binding site.
Cells were co-transfected with the renilla vector pRL-CMV or a β-galactosidase vector pCH110 as internal controls for transfection efficiencies.

NF-κB [4] = test: Western immunoblot of NF-κB activation (p65, p50, IκB) in myometrial cells; type: cell-based, human; design: Accumulation of phosphorylated IκBα: dose or concentration left out as unconfirmed
Method: (§9) Western immunoblots of nuclear or cytosolic protein extracts from (A) myometrial cells, (B) L− amnion cells, and (C) L+amnion cells treated with 15dPGJ2 or vehicle for 2 h+/−IL-1, stimulation (15 min). Blots probed with antibodies against p65, p50 or IκBα.
Western immunoblot of nuclear or cytosolic protein extracts from myometrial cells treated with PGA1 or vehicle for 2 h followed by IL-1β stimulation (15 min). Blots probed with antibodies against p65 or IκBa.
as §7
Western immunoblots of cytosolic extracts from myometrial cells (A) treated with 15dPGJ2 for 2 h+/−IL1b for 15 min; probed for IKK, and (B) treated with […] 15dPGJ2, […] MG132 or vehicle for 2 h, +/−IL-1β for 15 min; probed for IκBα.
as §8, §5
(§10) Protein samples (20-70 μg) were mixed with Laemmli sample buffer (1:1) containing β-mercaptoethanol (5%), and boiled for 5 min. Proteins were then separated by SDS-PAGE (12-14% gels) and transferred onto PVDF membrane (Amersham Pharmacia Biotech). The membranes were blocked overnight in 5% non-fat milk prepared in PBS-T buffer, at 4° C. The blots were incubated with the primary antibody in 1% non-fat milk in PBS-T buffer for 1 h, and washed three times (10 min each) in PBS-T with vigorous shaking. The blots were then incubated with HRP-conjugated secondary antibody (diluted 1:2000 in 1% non-fat milk in PBS-T buffer) for 1 h and washed three times (10 min each) in PBS-T. Signal detection was achieved using enhanced chemi-luminescence (ECL plus system, Amersham Pharmacia Biotech) according to manufacturer's instructions.
30-50 μg protein extracts were subjected to SDS-PAGE and Western immuno-blotting. Secondary antibodies were IgG-HRP and ECL Plus detection kit (Amersham Pharmacia Biotech, Amersham Place, Little Chalfont, Bucks, HP7 9NA) was used for visualisation.

NF-κB [5] = test: Western immunoblot of NF-κB activation (p65, p50, IκB) in amnion cells; type: cell-based, human; settings: L−
Method: as §9, §4, §5
as §10, with “instructions. […]” for “instructions.”

PPARα = settings: GAL4 chimera transfection system; cited from earlier work

## O=C(Nc1ccccc1)c1cc([N+](=O)[O-])ccc1Cl [GW-9662]
NF-κB [1]; amnion cells treated with 15d-PGJ2 in the presence of GW-9662
  Alleviation of 15d-PGJ2 inhibition of NF-κB DNA binding: failed to alleviate

## CN(CCOc1ccc(C[C@H](Nc2ccccc2C(=O)c2ccccc2)C(=O)O)cc1)c1ccccn1 [GW1929, reference compound]
NF-κB [2]; treated 2 h
  IL-1β-induced NF-κB DNA binding: failed to inhibit
NF-κB [3]
  IL-1-induced NF-κB transcriptional activity: not

## CCCCC(C)(C)[C@H](O)/C=C/[C@H]1[C@H](O)CC(=O)[C@@H]1C/C=C\CCCC(=O)O [16,16-Dimethyl-PGE2]
NF-κB [2]
  Synergy with IL-1β or TNFα on NF-κB activity: nor did it synergise
NF-κB [2]; treated 2 h
  IL-1β-induced NF-κB DNA binding: did not inhibit
NF-κB [2]; treated 2 h, TNFα or IL-1b 15 min
  TNFα- and IL-1β-induced NFκB activation: does not inhibit
NF-κB [2]; listed as 16,16-dimethyl-PGE2
  Induction of NF-κB DNA binding / stimulation of NF-κB activity by the compound alone: neither did it stimulate
NF-κB [2]; listed as PGE2
  Induction of NF-κB DNA binding / stimulation of NF-κB activity by the compound alone: does not induce
NF-κB [1]; L− amnion cells
  Induction of NF-κB DNA binding by the compound alone: does not induce
NF-κB [1]; L− and L+ amnion cells, treated 2 h, IL-1β stimulation 15 min
  IL-1β-induced NF-κB DNA binding: did not inhibit
NF-κB [4]
  IL-1β-induced p65 nuclear translocation: did not inhibit
NF-κB [5]
  IL-1β-induced p65 nuclear translocation: did not inhibit

## Cc1cccc(Nc2cc(Cl)nc(SCC(=O)O)n2)c1C [WY-14643, reference compound]
NF-κB [2]; 10-100 μM concentrations
  NF-κB DNA binding: had no effect
NF-κB [3]
  IL-1-induced NF-κB transcriptional activity: not
PPARα
  Doses that can transactivate PPARα: 5 to 25 µM

## CC(C)C[C@@H](C=O)NC(=O)[C@H](CC(C)C)NC(=O)[C@H](CC(C)C)NC(=O)OCc1ccccc1 [MG132, reference compound] (Cbz-Leu-Leu-Leu-aldehyde)
NF-κB [4]
  IL-1β-induced IκBα degradation: prevented
NF-κB [4]; 2 h, IL-1β 15 min
  Accumulation of phosphorylated IκBα: resulted in the accumulation
